The MIC is the lowest concentration found to suppress growth. Low values mean inhibition by little substance, high ones a need for much substance.

Common to all, as to assay: MIC, standard broth micro-dilution assay
Format in all cases: cell-based
For orientation: Dilution methods test growth across graded concentrations, often in twofold steps.

Test [1] relates to Entercoccus faecalis 2041. The procedure: (§1) The formula I compounds have in vitro and in vivo activity against Gram-positive pathogenic bacteria. The MIC's were determined using a standard broth micro-dilution assay.
For test [2], the system named is Entercoccus gallinarum 245. The procedure: as §1
The test system of a further test is Entercoccus faecalis 276. On the procedure:
as §1

SMILES strings stand for the structures. Converted amounts (≈) assume the structure as drawn.

Take `CNC(CC(C)C)C(=O)NC1C(=O)NC(CC(N)=O)C(=O)NC2C(=O)NC3C(=O)NC(C(=O)NC(C(=O)O)c4cc(O)cc(O)c4-c4cc3ccc4O)C(OC3CC(C)(N)C(O)C(C)O3)c3ccc(c(Cl)c3)Oc3cc2cc(c3OC2OC(CO)C(O)C(O)C2OC2CC(C)(NCCCCCCCCOc3ccc(OC)cc3)C(O)C(C)O2)Oc2ccc(cc2Cl)C1O` (stereo not drawn) [Compound 200, 8-[4-methoxyphenoxy]octyl]: the MIC in test [1] is not above 0.06 µg/mL; in test [2], 2 µg/mL (≈ 1.09 µM); against Entercoccus faecalis 276, 0.5 µg/mL (≈ 0.274 µM).

Regarding `CNC(CC(C)C)C(=O)NC1C(=O)NC(CC(N)=O)C(=O)NC2C(=O)NC3C(=O)NC(C(=O)NC(C(=O)O)c4cc(O)cc(O)c4-c4cc3ccc4O)C(OC3CC(C)(N)C(O)C(C)O3)c3ccc(c(Cl)c3)Oc3cc2cc(c3OC2OC(CO)C(O)C(O)C2OC2CC(C)(NCc3ccc(-c4ccccc4[N+](=O)[O-])cc3)C(O)C(C)O2)Oc2ccc(cc2Cl)C1O` (stereo not drawn) [Compound 102, 4-[2-nitrophenyl]benzyl], the MIC in test [1] is not above 0.06 µg/mL; in test [2], 4 µg/mL (≈ 2.22 µM); against Entercoccus faecalis 276, 0.25 µg/mL (≈ 0.139 µM).

For the molecule `CNC(CC(C)C)C(=O)NC1C(=O)NC(CC(N)=O)C(=O)NC2C(=O)NC3C(=O)NC(C(=O)NC(C(=O)O)c4cc(O)cc(O)c4-c4cc3ccc4O)C(OC3CC(C)(N)C(O)C(C)O3)c3ccc(c(Cl)c3)Oc3cc2cc(c3OC2OC(CO)C(O)C(O)C2OC2CC(C)(NCc3ccc(-c4ccc(Br)cc4)cc3)C(O)C(C)O2)Oc2ccc(cc2Cl)C1O` (stereo not drawn) [Compound 230, 4-[4-bromophenyl]benzyl], the values for the MIC (in test [1]; in test [2]; in the test with Entercoccus faecalis 276) were not above 0.06 µg/mL, 2 µg/mL (≈ 1.09 µM) and not above 0.06 µg/mL, respectively.

For the molecule `CNC(CC(C)C)C(=O)NC1C(=O)NC(CC(N)=O)C(=O)NC2C(=O)NC3C(=O)NC(C(=O)NC(C(=O)O)c4cc(O)cc(O)c4-c4cc3ccc4O)C(OC3CC(C)(N)C(O)C(C)O3)c3ccc(c(Cl)c3)Oc3cc2cc(c3OC2OC(CO)C(O)C(O)C2OC2CC(C)(NCc3ccc(OCCOCCCl)cc3)C(O)C(C)O2)Oc2ccc(cc2Cl)C1O` (stereo not drawn) [Compound 75], the MIC is not above 0.06 µg/mL in test [1], 4 µg/mL (≈ 2.22 µM) in test [2] and not above 0.06 µg/mL against Entercoccus faecalis 276.

In the case of `CNC(CC(C)C)C(=O)NC1C(=O)NC(CC(N)=O)C(=O)NC2C(=O)NC3C(=O)NC(C(=O)NC(C(=O)O)c4cc(O)cc(O)c4-c4cc3ccc4O)C(OC3CC(C)(N)C(O)C(C)O3)c3ccc(c(Cl)c3)Oc3cc2cc(c3OC2OC(CO)C(O)C(O)C2OC2CC(C)(NCc3cccc4ccccc34)C(O)C(C)O2)Oc2ccc(cc2Cl)C1O` (stereo not drawn) [Compound 3, 1-naphthylmethyl], the minimal inhibitory concentration (MIC) (in test [1]; in test [2]; with Entercoccus faecalis 276) was not above 0.06 µg/mL each time.

Consider `CNC(CC(C)C)C(=O)NC1C(=O)NC(CC(N)=O)C(=O)NC2C(=O)NC3C(=O)NC(C(=O)NC(C(=O)O)c4cc(O)cc(O)c4-c4cc3ccc4O)C(OC3CC(C)(N)C(O)C(C)O3)c3ccc(c(Cl)c3)Oc3cc2cc(c3OC2OC(CO)C(O)C(O)C2OC2CC(C)(NCCCc3ccc(OC)cc3)C(O)C(C)O2)Oc2ccc(cc2Cl)C1O` (stereo not drawn) [Compound 175, 3-[4-methoxyphenyl]propyl], for which the minimal inhibitory concentration (MIC) is not above 0.06 µg/mL in test [1], 4 µg/mL (≈ 2.3 µM) in test [2] and not above 0.06 µg/mL in the test on Entercoccus faecalis 276.

Regarding `CNC(CC(C)C)C(=O)NC1C(=O)NC(CC(N)=O)C(=O)NC2C(=O)NC3C(=O)NC(C(=O)NC(C(=O)O)c4cc(O)cc(O)c4-c4cc3ccc4O)C(OC3CC(C)(N)C(O)C(C)O3)c3ccc(c(Cl)c3)Oc3cc2cc(c3OC2OC(CO)C(O)C(O)C2OC2CC(C)(NCc3ccc(-c4ccc(C)cc4)cc3C)C(O)C(C)O2)Oc2ccc(cc2Cl)C1O` (stereo not drawn) [Compound 222, 4-[4-methylphenyl]-2-methylbenzyl], the figures for the MIC (in test [1]; in test [2]; in the test with Entercoccus faecalis 276) were not above 0.06 µg/mL, 1 µg/mL (≈ 0.56 µM) and not above 0.06 µg/mL, respectively.

For `CNC(CC(C)C)C(=O)NC1C(=O)NC(CC(N)=O)C(=O)NC2C(=O)NC3C(=O)NC(C(=O)NC(C(=O)O)c4cc(O)cc(O)c4-c4cc3ccc4O)C(OC3CC(C)(N)C(O)C(C)O3)c3ccc(c(Cl)c3)Oc3cc2cc(c3OC2OC(CO)C(O)C(O)C2OC2CC(C)(NCc3ccc(S(=O)(=O)c4ccc(Cl)cc4)cc3)C(O)C(C)O2)Oc2ccc(cc2Cl)C1O` (stereo not drawn) [Compound 148, 4-[4-chlorophenylsulfonyl]benzyl], the MIC was not above 0.06 µg/mL in test [1], 2 µg/mL (≈ 1.08 µM) in test [2] and not above 0.06 µg/mL with Entercoccus faecalis 276.

Regarding `CNC(CC(C)C)C(=O)NC1C(=O)NC(CC(N)=O)C(=O)NC2C(=O)NC3C(=O)NC(C(=O)NC(C(=O)O)c4cc(O)cc(O)c4-c4cc3ccc4O)C(OC3CC(C)(N)C(O)C(C)O3)c3ccc(c(Cl)c3)Oc3cc2cc(c3OC2OC(CO)C(O)C(O)C2OC2CC(C)(NCc3ccccc3O)C(O)C(C)O2)Oc2ccc(cc2Cl)C1O` (stereo not drawn) [Compound 169, 2-hydroxybenzyl], the minimum inhibitory concentration (MIC) in test [1] is not above 0.06 µg/mL; in test [2] it was 4 µg/mL (≈ 2.35 µM); in the test with Entercoccus faecalis 276, not above 0.06 µg/mL.

For `CNC(CC(C)C)C(=O)NC1C(=O)NC(CC(N)=O)C(=O)NC2C(=O)NC3C(=O)NC(C(=O)NC(C(=O)O)c4cc(O)cc(O)c4-c4cc3ccc4O)C(OC3CC(C)(N)C(O)C(C)O3)c3ccc(cc3)Oc3cc2cc(c3OC2OC(CO)C(O)C(O)C2OC2CC(C)(NCc3ccc(-c4ccccc4)cc3)C(O)C(C)O2)Oc2ccc(cc2Cl)C1O` (stereo not drawn) [Compound 182, 4-phenylbenzyl], the MIC (in test [1]; in test [2]; with Entercoccus faecalis 276) was 1 µg/mL (≈ 0.58 µM) throughout.

As to `CNC(CC(C)C)C(=O)NC1C(=O)NC(CC(N)=O)C(=O)NC2C(=O)NC3C(=O)NC(C(=O)NC(C(=O)O)c4cc(O)cc(O)c4-c4cc3ccc4O)C(OC3CC(C)(N)C(O)C(C)O3)c3ccc(c(Cl)c3)Oc3cc2cc(c3OC2OC(CO)C(O)C(O)C2OC2CC(C)(NCc3ccc(Oc4ccccc4Cl)c([N+](=O)[O-])c3)C(O)C(C)O2)Oc2ccc(cc2Cl)C1O` (stereo not drawn) [Compound 88, 4-[2-chlorophenoxy]-3-nitrobenzyl], the MIC (in test [1]; in test [2]; in the test on Entercoccus faecalis 276) was not above 0.06 µg/mL each time.

As for `CNC(CC(C)C)C(=O)NC1C(=O)NC(CC(N)=O)C(=O)NC2C(=O)NC3C(=O)NC(C(=O)NC(C(=O)O)c4cc(O)cc(O)c4-c4cc3ccc4O)C(OC3CC(C)(N)C(O)C(C)O3)c3ccc(c(Cl)c3)Oc3cc2cc(c3OC2OC(CO)C(O)C(O)C2OC2CC(C)(NCC34CC5CC(CC(C5)C3)C4)C(O)C(C)O2)Oc2ccc(cc2Cl)C1O` (stereo not drawn) [Compound 141, 1-adamantylmethyl], the MIC was not above 0.06 µg/mL in test [1], 4 µg/mL (≈ 2.3 µM) in test [2] and 0.5 µg/mL (≈ 0.287 µM) against Entercoccus faecalis 276.

For `CNC(CC(C)C)C(=O)NC1C(=O)NC(CC(N)=O)C(=O)NC2C(=O)NC3C(=O)NC(C(=O)NC(C(=O)O)c4cc(O)cc(O)c4-c4cc3ccc4O)C(OC3CC(C)(N)C(O)C(C)O3)c3ccc(c(Cl)c3)Oc3cc2cc(c3OC2OC(CO)C(O)C(O)C2OC2CC(C)(NCc3ccc(C)c(C)c3)C(O)C(C)O2)Oc2ccc(cc2Cl)C1O` (stereo not drawn) [Compound 76, 3,4-dimethylbenzyl], the MIC was not above 0.06 µg/mL in test [1], 4 µg/mL (≈ 2.34 µM) in test [2] and not above 0.06 µg/mL with Entercoccus faecalis 276.

In the case of `CNC(CC(C)C)C(=O)NC1C(=O)NC(CC(N)=O)C(=O)NC2C(=O)NC3C(=O)NC(C(=O)NC(C(=O)O)c4cc(O)cc(O)c4-c4cc3ccc4O)C(OC3CC(C)(N)C(O)C(C)O3)c3ccc(c(Cl)c3)Oc3cc2cc(c3OC2OC(CO)C(O)C(O)C2OC2CC(C)(NCc3c4c(cc5ccccc35)CCCC4)C(O)C(C)O2)Oc2ccc(cc2Cl)C1O` (stereo not drawn) [Compound 156, 1,2,3,4,-tetrahydro-9-anthranylmethyl], the MIC in test [1] turned out to be 0.5 µg/mL (≈ 0.28 µM); in test [2] it was 2 µg/mL (≈ 1.12 µM); against Entercoccus faecalis 276, 2 µg/mL (≈ 1.12 µM).

As to `CNC(CC(C)C)C(=O)NC1C(=O)NC(CC(N)=O)C(=O)NC2C(=O)NC3C(=O)NC(C(=O)NC(C(=O)O)c4cc(O)cc(O)c4-c4cc3ccc4O)C(OC3CC(C)(N)C(O)C(C)O3)c3ccc(c(Cl)c3)Oc3cc2cc(c3OC2OC(CO)C(O)C(O)C2OC2CC(C)(NCc3cccc(OCc4ccc5ccccc5n4)c3)C(O)C(C)O2)Oc2ccc(cc2Cl)C1O` (stereo not drawn) [Compound 125, 3-[2-quinoylmethoxy]benzyl], the results for the minimum inhibitory concentration (MIC) (in test [1]; in test [2]; against Entercoccus faecalis 276) were not above 0.06 µg/mL, 12 µg/mL (≈ 6.52 µM) and 2 µg/mL (≈ 1.09 µM), respectively.

As to `CNC(CC(C)C)C(=O)NC1C(=O)NC(CC(N)=O)C(=O)NC2C(=O)NC3C(=O)NC(C(=O)NC(C(=O)O)c4cc(O)cc(O)c4-c4cc3ccc4O)C(OC3CC(C)(N)C(O)C(C)O3)c3ccc(c(Cl)c3)Oc3cc2cc(c3OC2OC(CO)C(O)C(O)C2OC2CC(C)(NCc3ccc(Oc4ccc(Cl)cc4)cc3)C(O)C(C)O2)Oc2ccc(cc2Cl)C1O` (stereo not drawn) [Compound 240, 4-[4-chlorophenoxy]benzyl], the results for the MIC (in test [1]; in test [2]; against Entercoccus faecalis 276) were not above 0.06 µg/mL, 2 µg/mL (≈ 1.11 µM) and 0.5 µg/mL (≈ 0.276 µM), respectively.

As for `CNC(CC(C)C)C(=O)NC1C(=O)NC(CC(N)=O)C(=O)NC2C(=O)NC3C(=O)NC(C(=O)NC(C(=O)O)c4cc(O)cc(O)c4-c4cc3ccc4O)C(OC3CC(C)(N)C(O)C(C)O3)c3ccc(c(Cl)c3)Oc3cc2cc(c3OC2OC(CO)C(O)C(O)C2OC2CC(C)(NCc3ccc(NC(=O)c4ccc(F)cc4)cc3)C(O)C(C)O2)Oc2ccc(cc2Cl)C1O` (stereo not drawn) [Compound 193, 4-[(4-fluorobenzoyl)amino]benzyl], the minimum inhibitory concentration (MIC) in test [1] is not above 0.06 µg/mL; in test [2], 1 µg/mL (≈ 0.55 µM); against Entercoccus faecalis 276, not above 0.06 µg/mL.

As for `CNC(CC(C)C)C(=O)NC1C(=O)NC(CC(N)=O)C(=O)NC2C(=O)NC3C(=O)NC(C(=O)NC(C(=O)O)c4cc(O)cc(O)c4-c4cc3ccc4O)C(OC3CC(C)(N)C(O)C(C)O3)c3ccc(c(Cl)c3)Oc3cc2cc(c3OC2OC(CO)C(O)C(O)C2OC2CC(C)(NCc3ccc(OCCC4CCCCC4)cc3)C(O)C(C)O2)Oc2ccc(cc2Cl)C1O` (stereo not drawn) [Compound 127, 4-[cyclohexylethoxy]benzyl], the minimum inhibitory concentration (MIC) in test [1] is not above 0.06 µg/mL; in test [2] it was 4 µg/mL (≈ 2.21 µM); in the test with Entercoccus faecalis 276, not above 0.06 µg/mL.

The values are drawn from US5843889A, “Glycopeptide antibiotic derivatives” (Eli Lilly and Company, priority 1997, dated 1998).
